Consider five compounds from US6294152A, “Iron(III) complexes as contrast agents for image enhancement in magnetic resonance imaging” (The University of Toledo, priority 1999, dated 2001).

Data set [1] in a line: Relaxivity in Water and Plasma. The format is physicochemical. To be noted: 20 MHz, 37° C; for relaxivity r1 (plasma): in plasma; for relaxivity r1 (H2O): in water. As to the method: Relaxivity values (mM^-1 s^-1) have been determined in water and in plasma at 20 MHz and 37° C.
The test system of data set [2] is mice. Kind of data set: Toxicity Studies in Mice, LD50 i.v. The format is in vivo. From the text: The LD50 value of the tris(ligand) iron(III) complex of ligand IX, Fe-DIOLMAL, has been determined i.v. in mice and found to be ca. 20.0 mmol/kg bw.
For data set [3], the system named is mice. To be noted: metal chloride salts in aqueous solution, i.p.; cited from earlier work.

Where two headings read alike, the source gives them in different places.

The LD50 is the dose at which mortality reaches 50%. As to `Cc1c([O-])c(=O)ccn1CCO.Cc1c([O-])c(=O)ccn1CCO.Cc1c([O-])c(=O)ccn1CCO.[Fe+3]` [Fe-ETOHMAL], in data set [1], the “relaxivity r1 (plasma)” value turned out to be 2.0 mM⁻¹ s⁻¹ and the “relaxivity r1 (H2O)” value worked out at 1.7 mM⁻¹ s⁻¹. For the same compound, the LD50 result in the data set with mice [2] is given as “ca. 7.5 mmol/kg bw”.

On to `[Gd]` [gadolinium], for which, in the data set with mice [3], the LD50 is 1.4 mmol/kg. In the case of `[Mn+2]` [manganese], the LD50 in the data set with mice [3] was 1.5 mmol/kg. For iron, in the data set on mice [3], the LD50 is 1.6 mmol/kg. `Cc1c([O-])c(=O)ccn1CCC(=O)O.Cc1c([O-])c(=O)ccn1CCC(=O)O.Cc1c([O-])c(=O)ccn1CCC(=O)O.[Fe+3]` [Fe-BETALA]: in data set [1], the “relaxivity r1 (plasma)” value stood at 2.1 mM⁻¹ s⁻¹ and the “relaxivity r1 (H2O)” value came to 1.8 mM⁻¹ s⁻¹.
